Experimental data: PubChem BioAssay (NCI)
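Step 1: Grow cells in 96-well plates. Step 2: Expose to compound for 48 hours at 5 concentrations. Step 3: Interpolate endpoints linearly; if unreached, use highest concentration. GI50 = concentration required for 50% inhibition of growth. The concentration for full growth arrest is given as TGI.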

What was measured:
Assay in all cases: growth of human tumour cells (NCI), 48 h; in the data active = GI50 below about 0.43 µM; inactive = the rest
OVCAR-3 ovarian = test system: OVCAR-3 ovarian
OVCAR-5 ovarian = test system: OVCAR-5 ovarian
786-0 renal = test system: 786-0 renal
SR leukemia = test system: SR leukemia
IGROV1 ovarian = test system: IGROV1 ovarian
SNB-75 CNS = test system: SNB-75 CNS
MALME-3M melanoma = test system: MALME-3M melanoma
NCI/ADR-RES ovarian = test system: NCI/ADR-RES ovarian
HCT-116 colon = test system: HCT-116 colon
M14 melanoma = test system: M14 melanoma
K-562 leukemia = test system: K-562 leukemia
COLO 205 colon = test system: COLO 205 colon
UACC-62 melanoma = test system: UACC-62 melanoma
SF-295 CNS = test system: SF-295 CNS
A549 NSCLC = test system: A549 NSCLC
CCRF-CEM leukemia = test system: CCRF-CEM leukemia
SNB-19 CNS = test system: SNB-19 CNS
MDA-MB-435 = test system: MDA-MB-435
TK-10 renal = test system: TK-10 renal
HCT-15 colon = test system: HCT-15 colon
MOLT-4 leukemia = test system: MOLT-4 leukemia
DU-145 prostate = test system: DU-145 prostate
NCI-H522 lung = test system: NCI-H522 lung
OVCAR-4 ovarian = test system: OVCAR-4 ovarian
MDA-N = test system: MDA-N
MDA-MB-231 breast = test system: MDA-MB-231 breast
SK-MEL-2 melanoma = test system: SK-MEL-2 melanoma
PC-3 prostate = test system: PC-3 prostate
LOX IMVI melanoma = test system: LOX IMVI melanoma
HS 578T breast = test system: HS 578T breast
SW-620 colon = test system: SW-620 colon
U251 CNS = test system: U251 CNS
BT-549 breast = test system: BT-549 breast
NCI-H226 lung = test system: NCI-H226 lung
MCF7 breast = test system: MCF7 breast
SF-268 CNS = test system: SF-268 CNS
HOP-62 NSCLC = test system: HOP-62 NSCLC
SN12C renal = test system: SN12C renal
HL-60(TB) leukemia = test system: HL-60(TB) leukemia
HCC-2998 colon = test system: HCC-2998 colon
RPMI-8226 leukemia = test system: RPMI-8226 leukemia
SK-MEL-28 melanoma = test system: SK-MEL-28 melanoma
OVCAR-8 ovarian = test system: OVCAR-8 ovarian
UO-31 renal = test system: UO-31 renal
SK-OV-3 ovarian = test system: SK-OV-3 ovarian
KM12 colon = test system: KM12 colon
HT29 colon = test system: HT29 colon
EKVX NSCLC = test system: EKVX NSCLC
HOP-92 NSCLC = test system: HOP-92 NSCLC
CAKI-1 renal = test system: CAKI-1 renal
SF-539 CNS = test system: SF-539 CNS
NCI-H460 lung = test system: NCI-H460 lung
ACHN renal = test system: ACHN renal
UACC-257 melanoma = test system: UACC-257 melanoma
NCI-H23 lung = test system: NCI-H23 lung
RXF 393 renal = test system: RXF 393 renal
A498 renal = test system: A498 renal
T-47D breast = test system: T-47D breast
SK-MEL-5 melanoma = test system: SK-MEL-5 melanoma

CC(=O)Nc1ccc(NCC(=O)Nn2cnc3ccc(S(=O)(=O)Nc4ccc(NC(C)=O)cc4)cc3c2=O)cc1
> 100 µM: TGI (OVCAR-3 ovarian) | TGI (OVCAR-5 ovarian) | TGI (786-0 renal) | TGI (SR leukemia) | TGI (IGROV1 ovarian) | TGI (SNB-75 CNS) | TGI (MALME-3M melanoma) | TGI (NCI/ADR-RES ovarian) | TGI (HCT-116 colon) | TGI (M14 melanoma) | TGI (K-562 leukemia) | TGI (COLO 205 colon) | TGI (UACC-62 melanoma) | TGI (SF-295 CNS) | TGI (A549 NSCLC) | TGI (CCRF-CEM leukemia) | TGI (SNB-19 CNS) | TGI (MDA-MB-435) | TGI (TK-10 renal) | TGI (HCT-15 colon) | TGI (MOLT-4 leukemia) | TGI (DU-145 prostate) | TGI (NCI-H522 lung) | TGI (OVCAR-4 ovarian) | TGI (MDA-N) | TGI (MDA-MB-231 breast) | TGI (SK-MEL-2 melanoma) | TGI (PC-3 prostate) | TGI (LOX IMVI melanoma) | TGI (HS 578T breast) | TGI (SW-620 colon) | TGI (U251 CNS) | TGI (BT-549 breast) | TGI (NCI-H226 lung) | TGI (MCF7 breast) | TGI (SF-268 CNS) | TGI (HOP-62 NSCLC) | TGI (SN12C renal) | TGI (HL-60(TB) leukemia) | TGI (HCC-2998 colon) | TGI (RPMI-8226 leukemia) | TGI (SK-MEL-28 melanoma) | TGI (OVCAR-8 ovarian) | TGI (UO-31 renal) | TGI (SK-OV-3 ovarian) | TGI (KM12 colon) | TGI (HT29 colon) | TGI (EKVX NSCLC) | TGI (HOP-92 NSCLC) | TGI (CAKI-1 renal) | TGI (SF-539 CNS) | TGI (NCI-H460 lung) | TGI (ACHN renal) | TGI (UACC-257 melanoma) | TGI (NCI-H23 lung)

CCN(CC)c1ccc(/C=N/NC(=O)CSc2nc3ccccc3c(=O)n2CCc2ccc(S(N)(=O)=O)cc2)c(O)c1
69.1 µM: TGI (UACC-257 melanoma)
inactive: GI50 (OVCAR-5 ovarian) 4.4 µM | GI50 (786-0 renal) 4.46 µM | GI50 (SR leukemia) 0.445 µM | GI50 (IGROV1 ovarian) 1.48 µM | GI50 (SNB-75 CNS) 3.43 µM | GI50 (MALME-3M melanoma) 3.26 µM | GI50 (NCI/ADR-RES ovarian) > 100 µM | GI50 (HCT-116 colon) 0.927 µM | GI50 (M14 melanoma) 0.754 µM | GI50 (K-562 leukemia) 1.75 µM | GI50 (COLO 205 colon) 3.22 µM | GI50 (UACC-62 melanoma) 1.73 µM | GI50 (SF-295 CNS) 4.01 µM | GI50 (A549 NSCLC) 3.1 µM | GI50 (SNB-19 CNS) 3.72 µM | GI50 (MDA-MB-435) 3.89 µM | GI50 (TK-10 renal) 5.71 µM | GI50 (HCT-15 colon) 2.82 µM | GI50 (MOLT-4 leukemia) 0.653 µM | GI50 (RXF 393 renal) 2.17 µM | GI50 (DU-145 prostate) 1.82 µM | GI50 (NCI-H522 lung) 3.17 µM | GI50 (OVCAR-4 ovarian) 0.549 µM | GI50 (MDA-MB-231 breast) 2.27 µM | GI50 (SK-MEL-2 melanoma) 4.34 µM | GI50 (PC-3 prostate) 1.83 µM | GI50 (LOX IMVI melanoma) 1.09 µM | GI50 (HS 578T breast) 3.02 µM | GI50 (A498 renal) > 100 µM | GI50 (SW-620 colon) 3.12 µM | GI50 (U251 CNS) 1.44 µM | GI50 (BT-549 breast) 2.21 µM | GI50 (NCI-H226 lung) 1.34 µM | GI50 (MCF7 breast) 1.64 µM | GI50 (SF-268 CNS) 2.05 µM | GI50 (HOP-62 NSCLC) 1.86 µM | GI50 (SN12C renal) 1.86 µM | GI50 (HL-60(TB) leukemia) 1.71 µM | GI50 (HCC-2998 colon) 2.49 µM | GI50 (SK-MEL-28 melanoma) 2.69 µM | GI50 (OVCAR-8 ovarian) 1.03 µM | GI50 (UO-31 renal) 2.86 µM | GI50 (SK-OV-3 ovarian) 2.72 µM | GI50 (KM12 colon) 1.56 µM | GI50 (HT29 colon) 8.93 µM | GI50 (EKVX NSCLC) 1.42 µM | GI50 (HOP-92 NSCLC) 2.15 µM | GI50 (CAKI-1 renal) 1.84 µM | GI50 (SF-539 CNS) 2.42 µM | GI50 (NCI-H460 lung) 0.595 µM | GI50 (ACHN renal) 1.75 µM | GI50 (UACC-257 melanoma) 3.25 µM | GI50 (T-47D breast) 1.01 µM | GI50 (NCI-H23 lung) 2.99 µM | GI50 (SK-MEL-5 melanoma) 2.49 µM
75.2 µM: TGI (HOP-92 NSCLC)
50.2 µM: TGI (MDA-MB-231 breast)
6.66 µM: TGI (LOX IMVI melanoma)
2.44 µM: TGI (RPMI-8226 leukemia)
> 100 µM: TGI (OVCAR-3 ovarian) | TGI (OVCAR-5 ovarian) | TGI (786-0 renal) | TGI (SR leukemia) | TGI (IGROV1 ovarian) | TGI (SNB-75 CNS) | TGI (MALME-3M melanoma) | TGI (NCI/ADR-RES ovarian) | TGI (K-562 leukemia) | TGI (COLO 205 colon) | TGI (SF-295 CNS) | TGI (A549 NSCLC) | TGI (SNB-19 CNS) | TGI (MDA-MB-435) | TGI (TK-10 renal) | TGI (HCT-15 colon) | TGI (MOLT-4 leukemia) | TGI (DU-145 prostate) | TGI (NCI-H522 lung) | TGI (OVCAR-4 ovarian) | TGI (SK-MEL-2 melanoma) | TGI (PC-3 prostate) | TGI (HS 578T breast) | TGI (A498 renal) | TGI (SW-620 colon) | TGI (U251 CNS) | TGI (BT-549 breast) | TGI (NCI-H226 lung) | TGI (MCF7 breast) | TGI (SF-268 CNS) | TGI (HOP-62 NSCLC) | TGI (SN12C renal) | TGI (HCC-2998 colon) | TGI (SK-MEL-28 melanoma) | TGI (OVCAR-8 ovarian) | TGI (UO-31 renal) | TGI (SK-OV-3 ovarian) | TGI (KM12 colon) | TGI (HT29 colon) | TGI (EKVX NSCLC) | TGI (CAKI-1 renal) | TGI (NCI-H460 lung) | TGI (ACHN renal) | TGI (T-47D breast) | TGI (NCI-H23 lung)
4.35 µM: TGI (CCRF-CEM leukemia)
66.5 µM: TGI (SF-539 CNS)
7.2 µM: TGI (M14 melanoma)
32.2 µM: TGI (RXF 393 renal)
10.7 µM: TGI (HCT-116 colon)
6.37 µM: TGI (UACC-62 melanoma)
active: GI50 (OVCAR-3 ovarian) 0.296 µM | GI50 (CCRF-CEM leukemia) 0.326 µM | GI50 (RPMI-8226 leukemia) 0.417 µM
14.9 µM: TGI (SK-MEL-5 melanoma)
6.44 µM: TGI (HL-60(TB) leukemia)
